Data published in the supplement of paper PMC11208160.

Assay: recombinant barcode read abundance after kanamycin selection (control-corrected) (log10(CPM+1)); higher = more efficient recombination; sequences stand for … in AGTGCAGAGAAAATCGGCCAGTTTTCTCTGCCTGCAGTCCGCATGCCGT…AGATTTATGCAGCGGACTGCCTTTCTCCCAAAGTGATAAACCGGACAGTATCATGGACCGGTTTTCCCGGTAATCCGTATTTGCAAGGTTGGTTTCACT; site = the 11-nt target
Method in brief: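 Values are log10(CPM+1) from a pooled E. coli screen of targets paired with IS621 bridge RNA target-binding loops. Recombination efficiency here means counts per million of recombinant-junction barcodes, averaged and control-corrected. Plates were chloramphenicol/ampicillin LB agar for the control and chloramphenicol/ampicillin/kanamycin with 0.1 mM IPTG, two replicates each.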
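Note: IS621 recombinase and bridge RNA in Escherichia coli cells.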

Row | Sequence | recombinant barcode read abundance (log10)
1 | TACCAGTCTTGGGTTCTAACCTGTTGCTT (site TACCCGTCTAA) | 0.0102
2 | TACCAGTCTTGGGTTCTAACCTGTTGCTT (site TACCGGTCTAA) | 0.293
3 | TACCAGTCTTGGGTTCTAACCTGTTGCTT (site TACCTGTCTAA) | 0.111
4 | TACCCGCCTTGGGTTCTAACCTGTTGCTA (site TACCCGCCTTA) | 0.59
5 | TACCCGCCTTGGGTTCTAACCTGTTGCTA (site TACCCTACTTA) | 0.066
6 | TACCCGTCTTGGGTTCTAACCTGTTGCTT (site TACCAGTCTAA) | 0
7 | TACCCGTCTTGGGTTCTAACCTGTTGCTT (site TACCCGTCTAA) | 0.399
8 | TACCCGTCTTGGGTTCTAACCTGTTGCTT (site TACCGGTCTAA) | 0.168
9 | TACCCGTCTTGGGTTCTAACCTGTTGCTT (site TACCTGTCTAA) | 0.0134
10 | TACCGGCCTTGGGTTCTAACCTGTTGCTT (site TACCGGACTAC) | 0.0691
11 | TACCGGCCTTGGGTTCTAACCTGTTGCTT (site TACCGGCCTAA) | 0.444
12 | TACCTACCTTGGGTTCTAACCTGTTGCGA (site ATAACTACTAA) | 0.0536
13 | TACCTACCTTGGGTTCTAACCTGTTGCGA (site TACCTACCTTC) | 1.92
14 | TACCTATCTTGGGTTCTAACCTGTTGCGT (site TACCTAGCTAC) | 0.0617
15 | TACCTATCTTGGGTTCTAACCTGTTGCGT (site TACCTATCTAC) | 1.83
16 | TACGAACCTTGGGTTCTAACCTGTTGCGT (site TACGAACCTAC) | 2.94

Row | Sequence | recombinant barcode read abundance (log10)
17 | TACGAACCTTGGGTTCTAACCTGTTGCGT (site TAGGAGCCTAC) | 0.335
18 | TACGCCTCTTGGGTTCTAACCTGTTGCTA (site TACGCCTCTTA) | 1.31
19 | TACGCCTCTTGGGTTCTAACCTGTTGCTA (site TGCGCCTCTCA) | 0.299
20 | TACGGGGCTTGGGTTCTAACCTGTTGCCT (site TACGAGGCTAG) | 0.166
21 | TACGGGGCTTGGGTTCTAACCTGTTGCCT (site TACGCGGCTAG) | 0.139
22 | TACGGGGCTTGGGTTCTAACCTGTTGCCT (site TACGGGGCTAG) | 0.572
23 | TACGGGGCTTGGGTTCTAACCTGTTGCCT (site TACGTGGCTAG) | 0.414
24 | TACGGGTCTTGGGTTCTAACCTGTTGCCT (site AAGGGGTCTAG) | 0.0993
25 | TACGGGTCTTGGGTTCTAACCTGTTGCCT (site TACGGGTCTAG) | 1.16
26 | TACTAAACTTGGGTTCTAACCTGTTGCCT (site TACTAAACTAG) | 0.267
27 | TACTAAACTTGGGTTCTAACCTGTTGCCT (site TACTCAACTAG) | 0.0276
28 | TACTAAACTTGGGTTCTAACCTGTTGCCT (site TACTGAACTAG) | 0.0606
29 | TACTAAACTTGGGTTCTAACCTGTTGCCT (site TACTTAACTAG) | 0.00687
30 | TACTAAGCTTGGGTTCTAACCTGTTGCAT (site TACTAAGCTAA) | 0.149
31 | TACTAAGCTTGGGTTCTAACCTGTTGCAT (site TACTAAGCTAC) | 0.0997
32 | TACTAAGCTTGGGTTCTAACCTGTTGCAT (site TACTAAGCTAG) | 0.274
